Where two headings read alike, the source gives them in different places.
What was measured:
C8161 = test: Apoptosis assay (Cellomics, nucleus condensation); assay type: cell-based; conditions: Homo sapiens, Table III, read-out: Apoptosis induction in C8161
Source text: (§1) The Cellomics BioApplication (Thermo Fischer Cellomics Products, Pittsburgh, Pa.) is an automated image analysis algorithm that provides detailed analysis of phenotypes related to apoptosis. As one of the most prominent characteristics of apoptotics cell a nucleus condensation takes place. This can be measured fluorescence signal intensity using a CCD camera on fully automated microscope system. The Cellomics system is able to quantify the fluorescence intensity per single nucleus and calculates the variation of signal intensity in each cell population. […] Additionally the number of detected cell decreases normally in apoptotic cell populations. In detail 5000 cell per 96 well were labeled with DNA intercalating dye (Hoechst 33342, Sigma, Steinheim, Germany) to visualize the nucleus in a fluorescence microscope under live conditions. The apoptosis assay was performed 24 h and 48 h after addition of compound at concentrations 12.5 μM, 6.25 μM, 3.125 μM, 1.56 μM, 0.78 μM, 0.39 μM as well as DMSO control for 48 h.

Hs578T [1] = test: Apoptosis assay (Cellomics, nucleus condensation); assay type: cell-based; conditions: Homo sapiens, Hs-578T, Table III, read-out: Apoptosis induction in Hs578T
Source text: as §1

SF126 = test: Apoptosis assay (Cellomics, nucleus condensation); assay type: cell-based; conditions: Homo sapiens, SF-126, Table III, read-out: Apoptosis induction in SF126
Source text: as §1

SF763 = test: Apoptosis assay (Cellomics, nucleus condensation); assay type: cell-based; conditions: Table III, read-out: Apoptosis induction in SF763
Source text: as §1

U118 = test: Apoptosis assay (Cellomics, nucleus condensation); assay type: cell-based; conditions: Table III, read-out: Apoptosis induction in U118
Source text: as §1

U138 = test: Apoptosis assay (Cellomics, nucleus condensation); assay type: cell-based; conditions: Table III, read-out: Apoptosis induction in U138
Source text: as §1

indicated cell line = test: Wound healing migration assay (Table IV); assay type: cell-based; conditions: compounds at 12.5, 6.25, 3.125 μM, 48 h-72 h
Procedure: This method mimics cell migration during wound healing in vivo. The basic steps involve creating a “wound” in a cell monolayer, capturing the images at the beginning and at regular intervals during cell migration to close the wound, and comparing the images to quantify the migration rate of the cells. In detail, 150000 cell/24 well have been seeded and allowed to form a monolayer overnight. Subsequently a “wound” or “scratch” has been performed with a 1000 μl pipette tip. The STDV of wound size is normally below 10% at time point t0. The assay was stopped by fixation with 0.05% Crystal violet/20% methanol when control scratches were closed. The assay was terminated between 48 h and 72 h depending on the migration potential of the indicated cell line. The “wounds” were visualized with a Zeiss Axiovert S100 microscope (Carl Zeiss UK, Welwyn Garden City, UK). The tested compounds were used at 12.5 μM, 6.25, 3.125 μM and DMSO control. IC50 values have been calculated as 50% wound size in between t0 and t48 or t72.

Hs578T [2] = test: Matrigel outgrowth assay/branching assay; assay type: cell-based; conditions: Homo sapiens, Hs-578T; HS578T cell line; Table Ib; read-out: Total branching inhibition in Matrigel HS578T
In short: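 Matrigel 3 mg/ml, polymerized 1 h 37° C; 5000 cells/well + cmpd 3.125/1.56/0.78 μM or DMSO. Imaged 48/72/96 h, 5× objective. Positive = total branching block.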

tumor cell = test: Matrigel outgrowth assay/branching assay (Table Va); assay type: cell-based
Procedure: The Matrigel outgrowth assay is based on the ability of tumor cell to penetrate a solid gel of extracellular matrix proteins mimicking the metastasis formation in vivo. While cells with low invasive potential appear as roundish cell or cell cluster, cells with high invasive potential penetrate the Matrigel and form polymorphic structures. In detail 65 μl of Matrigel matrix (Matrigel™ Matrix, BD Biosciences, Bedford, Mass., USA) with a concentration of 3 mg/ml have been polymerized in 96 well plates for 1 h at 37° C. Subsequently 5000 cell/well were seeded into each well containing cell culture medium and indicated compound with concentrations of 3.125 μM, 1.56 μM and 0.78 μM as well as DMSO control. After 48 h, 72 h and 96 h images of cell were taken on an inverted microscope using a 5× objective (Zeiss Axiovert S100 microscope Carl Zeiss UK, Welwyn Garden City, UK). Only compound concentrations were total branching inhibition was evident were accounted as positive. Method was used as previously described, with some modifications (Thompson E W, et al. Association of increased basement membrane invasiveness with absence of estrogen receptor and expression of vimentin in human breast cancer cell lines. J Cell Physiol 1992; 150:534-44).

cells = test: Boyden chamber migration assay (Table VI); assay type: cell-based; conditions: Homo sapiens, Hs-578T, 16 h, Hs578T cells; 16 h migration
Procedure: The Boyden chamber assay is based on a chamber of two medium-filled compartments separated by a microporous membrane of 8 μM (Cell culture insert 8.0 μM pore size, BD Biosciences, Bedford, Mass.). The boyden chamber migration assays were carried out according to the supplier's instructions. In general, 20000 cells are placed in the upper compartment with medium containing 0% FCS plus 0.1% BSA and are allowed to migrate 16 h through the pores of the membrane into the lower compartment, which is filled with cell culture medium containing 10% FCS as chemotactic agents. The cells remaining in the insert were removed with a cotton swab, and the cells on the bottom of the filter were fixed and counted. (Zhang Y X, et al. AXL is a potential target for therapeutic intervention in breast cancer progression. Cancer Res. 2008; 68:1905-15).

viable cells in culture = test: Cell viability assay at 10 μM (CellTiter-Glo, Table VII); assay type: cell-based; conditions: compound 10 μM, 72 h;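 further: graded A 0-20%; B 21-40%; C 41-60%; D over 60% viable cells relative to DMSO control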
In short: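 Cells were seeded at 1000 cells/well in 96-well plates in 100 μl culture medium and incubated for 72 h with 10 μM compound or a DMSO control. ATP content, which reflects metabolically active and therefore viable cells, was then determined by CellTiter-Glo luminescence (Promega) per the manufacturer's instructions and expressed relative to the DMSO control.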

[3] = Homo sapiens, C8161 cells, read-out: IC50 Wound healing Assay C8161
[4] = SF763 cells, read-out: IC50 Wound healing Assay SF763
[5] = Homo sapiens, C8161 cells, read-out: Total branching inhibition in Matrigel C8161
[6] = Homo sapiens, Hs-578T, Hs578T cells, read-out: Total branching inhibition in Matrigel Hs578T
[7] = U118 cells, read-out: Total branching inhibition in Matrigel U118
[8] = U138 cells, read-out: Total branching inhibition in Matrigel U138
[9] = Homo sapiens, HCT-116, HCT116 def, read-out: percentage (%) of viable cells HCT 116def
[10] = Homo sapiens, HCT-116, HCT116 wt, read-out: percentage (%) of viable cells HCT 116wt
[11] = Homo sapiens, HT-29, HT29, read-out: percentage (%) of viable cells HT29
[12] = Homo sapiens, NCI-H358, H358, read-out: percentage (%) of viable cells H358
[13] = Homo sapiens, NCI-H1650, H1650, read-out: percentage (%) of viable cells H1650
[14] = Homo sapiens, NCI-H1666, H1666, read-out: percentage (%) of viable cells H1666
[15] = Homo sapiens, NCI-H1975, H1975, read-out: percentage (%) of viable cells H1975
[16] = Homo sapiens, NCI-H1993, H1993, read-out: percentage (%) of viable cells H1993
[17] = Homo sapiens, A549, read-out: percentage (%) of viable cells A549
[18] = Homo sapiens, HCC827, read-out: percentage (%) of viable cells HCC827
[19] = Homo sapiens, SW480, read-out: percentage (%) of viable cells SW480
[20] = RKO, read-out: percentage (%) of viable cells RKO

| Structure (SMILES) | IC50 (C8161) | IC50 (Hs578T [1]) | IC50 (SF126) | IC50 (SF763) | IC50 (U118) | IC50 (U138) | IC50 (indicated cell line; [3]) | IC50 (indicated cell line; [4]) | IC50 (Hs578T [2]) | IC50 (tumor cell; [5]) | IC50 (tumor cell; [6]) | IC50 (tumor cell; [7]) | IC50 (tumor cell; [8]) | IC50 (cells) | viability at 10 µM (viable cells in culture; [9]) | viability at 10 µM (viable cells in culture; [10]) | viability at 10 µM (viable cells in culture; [11]) | viability at 10 µM (viable cells in culture; [12]) | viability at 10 µM (viable cells in culture; [13]) | viability at 10 µM (viable cells in culture; [14]) | other results |
| --- | --- | --- | --- | --- | --- | --- | --- | --- | --- | --- | --- | --- | --- | --- | --- | --- | --- | --- | --- | --- | --- |
| COc1cc2c(Oc3ccc(NS(=O)(=O)c4ccccc4F)cc3F)ccnc2cc1OCCCN1CCN(C)CC1 [Example 26, 2-Fluoro-N-(3-fluoro-4-{6-methoxy-7-[3-(4-methyl-piperazin-1-yl)-propoxy]-quinolin-4-yloxy}-phenyl)-benzenesulfonamide] | ≤ 12.5 µM | ≤ 12.5 µM | 12.5 to 50 µM | ≤ 12.5 µM | 12.5 to 50 µM | ≤ 12.5 µM | 12.5 to 50 µM | ≤ 12.5 µM | ≤ 10 µM | ≤ 5 µM | ≤ 5 µM | ≤ 5 µM | 5 to 50 µM | ≤ 5 µM |  |  |  |  |  |  | melting point: 185 to 186 °C |
| O=S(=O)(Nc1ccc(Oc2ccnc3cc(OCCCCN4CCOCC4)ccc23)c(F)c1)c1cc(F)ccc1F [Example 84, 2,5-Difluoro-N-{3-fluoro-4-[7-(4-morpholin-4-yl-butoxy)-quinolin-4-yloxy]-phenyl}-benzenesulfonamide] | ≤ 12.5 µM | ≤ 12.5 µM | ≤ 12.5 µM | ≤ 12.5 µM | ≤ 12.5 µM | ≤ 12.5 µM | ≤ 12.5 µM | 12.5 to 50 µM | ≤ 10 µM | ≤ 5 µM | ≤ 5 µM | ≤ 5 µM | ≤ 5 µM | ≤ 5 µM | 0 to 20% | 0 to 20% | 0 to 20% | 0 to 20% | 0 to 20% | 41 to 60% | viability at 10 µM (viable cells in culture; [15]): 21 to 40%; viability at 10 µM (viable cells in culture; [16]): 0 to 20%; viability at 10 µM (viable cells in culture; [17]): > 60%; viability at 10 µM (viable cells in culture; [18]): > 60%; viability at 10 µM (viable cells in culture; [19]): 0 to 20%; viability at 10 µM (viable cells in culture; [20]): 0 to 20% |
| CN1CCN(CCCOc2ccc3nccc(Oc4ccc(NS(=O)(=O)c5ccccc5C(F)(F)F)cc4F)c3c2)CC1 [Example 85, N-(3-Fluoro-4-{6-[3-(4-methyl-piperazin-1-yl)-propoxy]-quinolin-4-yloxy}-phenyl)-2-trifluoromethyl-benzenesulfonamide] | ≤ 12.5 µM | ≤ 12.5 µM | ≤ 12.5 µM | ≤ 12.5 µM | 12.5 to 50 µM | ≤ 12.5 µM | ≤ 12.5 µM | 12.5 to 50 µM | ≤ 10 µM | ≤ 5 µM | ≤ 5 µM | ≤ 5 µM | 5 to 50 µM | ≤ 5 µM | 21 to 40% | 0 to 20% | 21 to 40% | 21 to 40% | 21 to 40% | 41 to 60% | viability at 10 µM (viable cells in culture; [15]): 21 to 40%; viability at 10 µM (viable cells in culture; [16]): 0 to 20%; viability at 10 µM (viable cells in culture; [17]): 41 to 60%; viability at 10 µM (viable cells in culture; [18]): 0 to 20%; viability at 10 µM (viable cells in culture; [19]): 0 to 20%; viability at 10 µM (viable cells in culture; [20]): 0 to 20% |
| COc1cc2nccc(Oc3ccc(NS(=O)(=O)c4ccccc4C(F)(F)F)cc3F)c2cc1OCCCN1CCN(C)CC1 [Example 86, N-(3-Fluoro-4-{7-methoxy-6-[3-(4-methyl-piperazin-1-yl)-propoxy]-quinolin-4-yloxy}-phenyl)-2-trifluoromethyl-benzenesulfonamide] | ≤ 12.5 µM | ≤ 12.5 µM | ≤ 12.5 µM | ≤ 12.5 µM | ≤ 12.5 µM | ≤ 12.5 µM | 12.5 to 50 µM | 12.5 to 50 µM | ≤ 10 µM | ≤ 5 µM | ≤ 5 µM | ≤ 5 µM | 5 to 50 µM | ≤ 5 µM | 21 to 40% | 21 to 40% | 0 to 20% | 0 to 20% | 21 to 40% | 41 to 60% | viability at 10 µM (viable cells in culture; [15]): 21 to 40%; viability at 10 µM (viable cells in culture; [16]): 0 to 20%; viability at 10 µM (viable cells in culture; [17]): > 60%; viability at 10 µM (viable cells in culture; [18]): 41 to 60%; viability at 10 µM (viable cells in culture; [19]): 21 to 40%; viability at 10 µM (viable cells in culture; [20]): 21 to 40% |
| COc1cc2c(Oc3ccc(NS(=O)(=O)c4ccc(F)c(F)c4F)cc3F)ccnc2cc1OCCCN1CCN(C)CC1 [Example 17, 2,3,4-Trifluoro-N-(3-fluoro-4-{6-methoxy-7-[3-(4-methyl-piperazin-1-yl)-propoxy]-quinolin-4-yloxy}-phenyl)-benzenesulfonamide] | ≤ 12.5 µM | ≤ 12.5 µM | ≤ 12.5 µM | ≤ 12.5 µM | 12.5 to 50 µM | ≤ 12.5 µM | ≤ 12.5 µM | 12.5 to 50 µM | ≤ 10 µM | ≤ 5 µM | ≤ 5 µM | ≤ 5 µM | 5 to 50 µM | ≤ 5 µM |  |  |  |  |  |  | melting point: 88 to 90 °C |

— patent publication US9169241B2, “Quinolinyloxyphenylsulfonamides” (Max-Planck-Gesellschaft Zur Forderung der Wissenschaften …, priority 2009, dated 2015)
